Results from paper PMC9506485, “Synthesis and Structure–Activity Relationships for the Anti-Mycobacterial Activity of 3-Phenyl-N-(Pyridin-2-ylmethyl)Pyrazolo[1,5-a]Pyrimidin-7-Amines” (Pharmaceuticals, 2022).
≈ marks a conversion by molar mass, not a printed value.

Tests used:
[1] = Microsomal stability, mouse liver microsomes; format: in vitro ADME; conditions: for CLint scaled at 1 μM / half-life at 1 μM: CD-1, mouse, microsomes, pH 7.4; for microsomal CLint at 1 μM: CD-1, pH 7.4, mouse liver microsomes, read-out: MLM Clint(mic)
Description: (§1) Assays were performed by WuXi AppTec (Shanghai) Co., Ltd. The test compounds (Table 4) (at 1 μM) were incubated at 37 °C with liver microsomes from human or CD-1 mice in the presence of a NADPH regenerating system and phosphate buffer (100 mM, pH 7.4) at 0.5 mg/mL microsomal protein (the positive controls were testosterone, propafenone, and diclofenac). Samples were removed at time intervals of 0, 5, 10, 20, 30, and 60 min and immediately mixed with cold CH3CN (containing 0.1 μg/mL of tolbutamide as an internal standard) and then centrifuged prior to analysis by LCMS/MS.

[2] = test system: Mycobacterium tuberculosis (strain H37Rv); assay: LORA minimum inhibitory concentration assay (low-oxygen/non-replicating); conditions: M.tb H37Rv, 90% inhibition of growth
[3] = Microsomal stability, human liver microsomes; format: in vitro ADME; conditions: pH 7.4; for CLint scaled at 1 μM / half-life at 1 μM: human, microsomes; for microsomal CLint at 1 μM: human liver microsomes, read-out: HLM Clint(mic)
Description: as §1

[4] = test system: Mycobacterium tuberculosis (strain H37Rv); assay: MABA minimum inhibitory concentration assay (aerobic/replicating); format: cell-based; conditions: M.tb H37Rv; for MIC90: Mycobacterium tuberculosis, aerobic/replicating, 90% inhibition of growth; for anti-mycobacterial activity in words: MABA/LORA
hERG = hERG (Homo sapiens, UniProt Q12809); assay: hERG channel blockade, manual patch clamp; format: cell-based; conditions: cloned hERG potassium channels, room temperature
Description: Selected compounds were evaluated for hERG channel blockade (Table 4) by WuXi AppTec (Shanghai) Co., Ltd. This was carried out using cloned hERG potassium channels according to their standard manual patch clamp method. Two concentrations (0.3 and 1.0 µM) were tested (at room temperature), and at least three replicates were obtained for each. Amitryptyline was used as a standard.

[5] = test system: VERO green monkey kidney cells; assay: VERO mammalian cell toxicity assay; format: cell-based; conditions: Chlorocebus sabaeus; inhibition of growth of VERO green monkey kidney epithelial cells

hERG, sequence (Q12809 whole entry): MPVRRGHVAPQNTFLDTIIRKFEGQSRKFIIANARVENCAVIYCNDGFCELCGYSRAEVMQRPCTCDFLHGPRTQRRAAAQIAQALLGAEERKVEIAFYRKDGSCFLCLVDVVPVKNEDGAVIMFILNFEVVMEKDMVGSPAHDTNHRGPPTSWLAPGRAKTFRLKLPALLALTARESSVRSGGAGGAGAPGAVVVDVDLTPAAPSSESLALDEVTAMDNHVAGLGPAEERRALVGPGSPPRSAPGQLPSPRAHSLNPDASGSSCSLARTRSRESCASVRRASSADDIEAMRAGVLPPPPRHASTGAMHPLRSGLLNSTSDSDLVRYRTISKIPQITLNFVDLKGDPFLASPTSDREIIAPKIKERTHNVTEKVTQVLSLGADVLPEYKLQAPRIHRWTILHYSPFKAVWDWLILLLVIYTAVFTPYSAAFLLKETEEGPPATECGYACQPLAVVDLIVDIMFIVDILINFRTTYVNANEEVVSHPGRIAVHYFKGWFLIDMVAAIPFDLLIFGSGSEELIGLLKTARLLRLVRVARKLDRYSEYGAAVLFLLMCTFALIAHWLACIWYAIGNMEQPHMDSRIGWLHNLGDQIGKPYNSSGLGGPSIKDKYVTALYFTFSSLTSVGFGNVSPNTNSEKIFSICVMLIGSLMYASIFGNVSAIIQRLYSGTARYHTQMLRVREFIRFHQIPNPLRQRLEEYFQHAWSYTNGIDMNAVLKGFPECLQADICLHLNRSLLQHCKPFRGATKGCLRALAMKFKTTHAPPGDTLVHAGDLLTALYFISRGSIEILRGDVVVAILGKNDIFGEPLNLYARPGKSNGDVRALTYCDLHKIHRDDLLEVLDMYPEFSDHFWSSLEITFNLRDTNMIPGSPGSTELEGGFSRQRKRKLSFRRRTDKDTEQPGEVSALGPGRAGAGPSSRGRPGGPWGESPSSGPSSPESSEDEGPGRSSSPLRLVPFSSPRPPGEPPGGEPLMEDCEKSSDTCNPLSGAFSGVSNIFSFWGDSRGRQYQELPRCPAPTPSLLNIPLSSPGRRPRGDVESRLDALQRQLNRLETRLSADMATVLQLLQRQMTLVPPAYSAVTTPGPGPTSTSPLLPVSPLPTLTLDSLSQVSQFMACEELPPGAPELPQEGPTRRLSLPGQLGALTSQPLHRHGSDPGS

## Cc1cccc(-c2cc(NCc3ccccn3)n3ncc(-c4ccc(F)cc4)c3n2)c1 [Compound 30, 3-(4-Fluorophenyl)-N-(pyridin-2-ylmethyl)-5-(m-tolyl)pyrazolo[1,5-a]pyrimidin-7-amine]
[1]
  CLint scaled at 1 μM: < 38 mL/min/kg
  half-life at 1 μM: > 2.42 h
  microsomal CLint at 1 μM: < 9.6 µL/min/mg
[2]
  MIC90 LORA: 0.9 µg/mL (≈ 2.2 µM)
[3]
  CLint scaled at 1 μM: < 8.6 mL/min/kg
  half-life at 1 μM: > 2.42 h
  microsomal CLint at 1 μM: < 9.6 µL/min/mg
[4]
  MIC90: 1.6 µg/mL (≈ 3.91 µM)
hERG; 0.3 µM, read-out: hERG % inhib. at 0.3 µM
  inhibition at 0.3 µM: 3%
hERG; 1.0 µM, read-out: hERG % inhib. at 1.0 µM
  inhibition at 1 µM: 11%
[5]
  IC50: > 32 µg/mL

## Cc1ccnc(CNc2cc(-c3ccccc3)nc3c(-c4ccc(F)cc4)cnn23)c1 [Compound 62, 3-(4-Fluorophenyl)-N-((4-methylpyridin-2-yl)methyl)-5-phenylpyrazolo[1,5-a]pyrimidin-7-amine]
[1]
  CLint scaled at 1 μM: < 38 mL/min/kg
  half-life at 1 μM: > 2.42 h
  microsomal CLint at 1 μM: < 9.6 µL/min/mg
[2]
  MIC90 LORA: 0.5 µg/mL (≈ 1.22 µM)
[3]
  CLint scaled at 1 μM: < 8.6 mL/min/kg
  half-life at 1 μM: > 2.42 h
  microsomal CLint at 1 μM: < 9.6 µL/min/mg
[4]
  MIC90: 1.8 µg/mL (≈ 4.4 µM)
[5]
  IC50: > 32 µg/mL
other
  melting point: 157 to 159 °C

## COc1cccc(CNc2cc(-c3ccccc3)nc3c(-c4ccc(F)cc4)cnn23)n1 [Compound 48, 3-(4-Fluorophenyl)-N-((6-methoxypyridin-2-yl)methyl)-5-phenylpyrazolo[1,5-a]pyrimidin-7-amine]
[2]
  MIC90 LORA: >32 µg/mL
[4]
  MIC90: > 32 µg/mL
[5]
  IC50: > 32 µg/mL
other
  melting point: 163 to 165 °C

## Fc1ccc(-c2cnn3c(NCc4ncccc4Br)cc(-c4ccccc4)nc23)cc1 [Compound 71, N-((3-Bromopyridin-2-yl)methyl)-3-(4-fluorophenyl)-5-phenylpyrazolo[1,5-a]pyrimidin-7-amine]
[2]
  MIC90 LORA: >32 µg/mL
[4]
  MIC90: > 32 µg/mL
[5]
  IC50: > 32 µg/mL
other
  melting point: 189 to 191 °C

## Fc1ccc(-c2cnn3c(NCc4ncccc4F)cc(-c4ccccc4)nc23)cc1 [Compound 70, 3-(4-Fluorophenyl)-N-((3-fluoropyridin-2-yl)methyl)-5-phenylpyrazolo[1,5-a]pyrimidin-7-amine]
[2]
  MIC90 LORA: >32 µg/mL
[4]
  MIC90: > 32 µg/mL
[5]
  IC50: > 32 µg/mL
other
  melting point: 165 to 168 °C

## CN(C)CCN(C)c1ccnc(CNc2cc(-c3ccccc3)nc3c(-c4ccc(F)cc4)cnn23)c1 [Compound 67, N1-(2-(((3-(4-Fluorophenyl)-5-phenylpyrazolo[1,5-a]pyrimidin-7-yl)amino)methyl)pyridin-4-yl)-N1,N2,N2-trimethylethane-1,2-diamine]
[2]
  MIC90 LORA: 1.5 µg/mL (≈ 3.03 µM)
[4]
  MIC90: 1.7 µg/mL (≈ 3.43 µM)
[5]
  IC50: 9.9 µg/mL (≈ 20 µM)
other
  melting point: 158 to 160 °C

## Cc1ccc(-c2cnn3c(NCc4ccccn4)cc(-c4ccccc4)nc23)cc1 [Compound 19, 5-Phenyl-N-(pyridin-2-ylmethyl)-3-(p-tolyl)pyrazolo[1,5-a]pyrimidin-7-amine]
[2]
  MIC90 LORA: >32 µg/mL
[4]
  anti-mycobacterial activity in words: inactive
  MIC90: > 32 µg/mL
[5]
  IC50: > 32 µg/mL
other
  melting point: 172 to 174 °C

## Fc1ccc(-c2cnn3c(NCc4ccc(N5CCCCC5)cn4)cc(-c4ccccc4)nc23)cc1 [Compound 59, 3-(4-Fluorophenyl)-5-phenyl-N-((5-(piperidin-1-yl)pyridin-2-yl)methyl)pyrazolo[1,5-a]pyrimidin-7-amine]
[2]
  MIC90 LORA: 0.85 µg/mL (≈ 1.78 µM)
[4]
  MIC90: 0.96 µg/mL (≈ 2.01 µM)
[5]
  IC50: > 32 µg/mL
other
  melting point: 179 to 182 °C

## CN1CCN(c2ccnc(CNc3cc(-c4ccccc4)nc4c(-c5ccc(F)cc5)cnn34)c2)CC1 [Compound 65, 3-(4-Fluorophenyl)-N-((4-(4-methylpiperazin-1-yl)pyridin-2-yl)methyl)-5-phenylpyrazolo[1,5-a]pyrimidin-7-amine]
[2]
  MIC90 LORA: 0.73 µg/mL (≈ 1.48 µM)
[4]
  MIC90: 0.09 µg/mL (≈ 0.182 µM)
[5]
  IC50: 10.7 µg/mL (≈ 21.7 µM)
other
  melting point: 203 to 205 °C

## COc1ccccc1-c1cnn2c(NCc3ccccn3)cc(-c3ccccc3)nc12 [Compound 12, 3-(2-Methoxyphenyl)-5-phenyl-N-(pyridin-2-ylmethyl)pyrazolo[1,5-a]pyrimidin-7-amine]
[2]
  MIC90 LORA: >32 µg/mL
[4]
  MIC90: > 32 µg/mL
[5]
  IC50: > 32 µg/mL
other
  melting point: 169 to 171 °C

## Fc1ccc(-c2cnn3c(NCc4cccc(Br)n4)cc(-c4ccccc4)nc23)cc1 [Compound 46, N-((6-Bromopyridin-2-yl)methyl)-3-(4-fluorophenyl)-5-phenylpyrazolo[1,5-a]pyrimidin-7-amine]
[2]
  MIC90 LORA: >32 µg/mL
[4]
  MIC90: > 32 µg/mL
[5]
  IC50: > 32 µg/mL
other
  melting point: 160 to 161 °C

## CN(C)c1cccnc1CNc1cc(-c2ccccc2)nc2c(-c3ccc(F)cc3)cnn12 [Compound 69, N-((3-(Dimethylamino)pyridin-2-yl)methyl)-3-(4-fluorophenyl)-5-phenylpyrazolo[1,5-a]pyrimidin-7-amine]
[2]
  MIC90 LORA: 0.49 µg/mL (≈ 1.12 µM)
[4]
  MIC90: 1.5 µg/mL (≈ 3.42 µM)
[5]
  IC50: > 32 µg/mL
other
  melting point: 167 to 170 °C

## N#Cc1cccnc1CNc1cc(-c2ccccc2)nc2c(-c3ccc(F)cc3)cnn12 [Compound 72, 2-(((3-(4-Fluorophenyl)-5-phenylpyrazolo[1,5-a]pyrimidin-7-yl)amino)methyl)nicotinonitrile]
[2]
  MIC90 LORA: >32 µg/mL
[4]
  MIC90: > 32 µg/mL
[5]
  IC50: > 32 µg/mL
other
  melting point: 241 to 244 °C

## Fc1ccc(-c2cnn3c(NCc4cccc(N5CCCCC5)n4)cc(-c4ccccc4)nc23)cc1 [Compound 50, 3-(4-Fluorophenyl)-5-phenyl-N-((6-(piperidin-1-yl)pyridin-2-yl)methyl)pyrazolo[1,5-a]pyrimidin-7-amine]
[2]
  MIC90 LORA: 1.75 µg/mL (≈ 3.66 µM)
[4]
  MIC90: 0.25 µg/mL (≈ 0.522 µM)
[5]
  IC50: > 32 µg/mL
other
  melting point: 185 to 187 °C

## Fc1ccc(-c2cnn3c(NCc4cc(Cl)ccn4)cc(-c4ccccc4)nc23)cc1 [Compound 60, N-((4-Chloropyridin-2-yl)methyl)-3-(4-fluorophenyl)-5-phenylpyrazolo[1,5-a]pyrimidin-7-amine]
[2]
  MIC90 LORA: >32 µg/mL
[4]
  anti-mycobacterial activity in words: inactive
  MIC90: > 32 µg/mL
[5]
  IC50: > 32 µg/mL
other
  melting point: 220 to 222 °C

## COc1ccc(CNc2cc(-c3ccccc3)nc3c(-c4ccc(F)cc4)cnn23)nc1 [Compound 54, 3-(4-Fluorophenyl)-N-((5-methoxypyridin-2-yl)methyl)-5-phenylpyrazolo[1,5-a]pyrimidin-7-amine]
[1]
  CLint scaled at 1 μM: < 38 mL/min/kg
  half-life at 1 μM: > 2.42 h
  microsomal CLint at 1 μM: < 9.6 µL/min/mg
[2]
  MIC90 LORA: 1.3 µg/mL (≈ 3.06 µM)
[3]
  CLint scaled at 1 μM: < 8.6 mL/min/kg
  half-life at 1 μM: > 2.42 h
  microsomal CLint at 1 μM: < 9.6 µL/min/mg
[4]
  MIC90: 3.6 µg/mL (≈ 8.46 µM)
[5]
  IC50: > 32 µg/mL
other
  melting point: 212 to 214 °C

## Fc1cccc(-c2cnn3c(NCc4ccccn4)cc(-c4ccccc4)nc23)c1 [Compound 14, 3-(3-Fluorophenyl)-5-phenyl-N-(pyridin-2-ylmethyl)pyrazolo[1,5-a]pyrimidin-7-amine]
[2]
  MIC90 LORA: >32 µg/mL
[4]
  MIC90: > 32 µg/mL
[5]
  IC50: > 32 µg/mL
other
  melting point: 170 to 172 °C

## Fc1ccc(-c2cnn3c(NCc4cc(N5CCOCC5)ccn4)cc(-c4ccccc4)nc23)cc1 [Compound 66, 3-(4-Fluorophenyl)-N-((4-morpholinopyridin-2-yl)methyl)-5-phenylpyrazolo[1,5-a]pyrimidin-7-amine]
[2]
  MIC90 LORA: 0.98 µg/mL (≈ 2.04 µM)
[4]
  MIC90: 0.06 µg/mL (≈ 0.125 µM)
[5]
  IC50: > 32 µg/mL
other
  melting point: 208 °C

## Fc1ccc(-c2cnn3c(NCc4cccc(F)n4)cc(-c4ccccc4)nc23)cc1 [Compound 45, 3-(4-Fluorophenyl)-N-((6-fluoropyridin-2-yl)methyl)-5-phenylpyrazolo[1,5-a]pyrimidin-7-amine]
[2]
  MIC90 LORA: >32 µg/mL
[4]
  MIC90: > 32 µg/mL
[5]
  IC50: > 32 µg/mL
other
  melting point: 196 to 198 °C

## FC(F)(F)c1cccc(-c2cnn3c(NCc4ccccn4)cc(-c4ccccc4)nc23)c1 [Compound 17, 5-Phenyl-N-(pyridin-2-ylmethyl)-3-(3-(trifluoromethyl)phenyl)pyrazolo[1,5-a]pyrimidin-7-amine]
[2]
  MIC90 LORA: >32 µg/mL
[4]
  MIC90: > 32 µg/mL
[5]
  IC50: > 32 µg/mL
other
  melting point: 156 to 158 °C

## Cc1cccc(-c2cnn3c(NCc4ccccn4)cc(-c4ccccc4)nc23)c1 [Compound 15, 5-Phenyl-N-(pyridin-2-ylmethyl)-3-(m-tolyl)pyrazolo[1,5-a]pyrimidin-7-amine]
[2]
  MIC90 LORA: 30 µg/mL (≈ 76.6 µM)
[4]
  MIC90: > 32 µg/mL
[5]
  IC50: > 32 µg/mL
other
  melting point: 172 to 174 °C
